Patent US20220274947A1, “NOVEL HETEROARYL-TRIAZOLE COMPOUNDS AS PESTICIDES” (Bayer Aktiengesellschaft, priority 2019, published 2022)

Key:
Type in all cases: in vivo
Nezara viridula = Nezara viridula spray test; conditions: in Hordeum vulgare, 96 h, barley plants, larvae, after 4 days; for mortality at 500 g/ha: application rate 500 g/ha; for mortality at 100 g/ha: application rate 100 g/ha
How it was run: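 Barley plants infested with N. viridula larvae were sprayed with compound in acetone/DMF diluted with water containing 1000 ppm alkylarylpolyglycol ether emulsifier. Mortality (%) was scored after 4 days; 100% means all bugs killed, 0% none.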

[1] = tested on: Aedes aegypti strain MONHEIM; test: Aedes aegypti test (AEDSAE surface treatment & contact assay); conditions: exposure 30 minutes, 24 hours after contact, read-out: efficacy (mortality); for mortality at 20 mg/m2: surface concentration 20 mg/m^2, glazed tile; for mortality at 4 mg/m2: surface concentration 4 mg/m^2, glazed tile
How it was run: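 Compound dissolved in acetone (2 mg/ml) with 2000 ppm rapeseed oil methyl ester, pipetted onto glazed tile and dried. Adult mosquitoes exposed on the surface for 30 min; percent mortality scored 24 h after contact.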

Rhipicephalus sanguineus = Rhipicephalus sanguineus in-vitro contact test, adult brown dog ticks (RHIPSA Cont); conditions: 48 h, after 48 hours, read-out: activity (efficacy: 100% means all ticks are dead or moribund); for pest or weed control at 1 µg/cm2, 100 g/ha: application rate 1 μg/cm^2 (=100 g/ha); for pest or weed control at 5 µg/cm2, 500 g/ha: application rate 5 μg/cm^2 (=500 g/ha)
How it was run: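 Compound in acetone (9 mg/mL stock, diluted to test concentration) is coated onto inner walls of glass tubes by rotation for 2 h at 30 rpm. Efficacy is read after 48 h: ticks are tapped down and held on a 45-50° C plate for at most 5 min, and immotile or uncoordinated ones that fail to climb away count as dead or moribund.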

[2] = tested on: Anopheles funestus strain FUMOZ-R; test: Anopheles funestus test (ANPHFU surface treatment & contact assay); conditions: exposure 30 minutes, 24 hours after contact, read-out: efficacy (mortality); for mortality at 4 mg/m2: surface concentration 4 mg/m^2, glazed tile; for mortality at 20 mg/m2: surface concentration 20 mg/m^2, glazed tile
How it was run: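 Adult FUMOZ-R mosquitoes were exposed 30 min to glazed tiles treated with compound in acetone plus 2000 ppm rapeseed oil methyl ester, after solvent evaporation. Percent mortality was scored 24 h after contact.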

Myzus persicae = Myzus persicae oral test; conditions: 120 h, read-out: activity (mortality)
How it was run: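 Percent mortality was recorded at day 5, where 0% means no aphids killed. Compound prepared from an acetone concentrate diluted in water and combined with IPL41 medium containing sugar was offered to mixed-stage green peach aphids, which sucked it through a parafilm seal.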

[3] = tested on: Musca domestica strain WHO—N; test: Musca domestica test (MUSCDO surface treatment & contact assay); conditions: exposure 30 minutes, 24 hours after contact, read-out: efficacy (mortality); for mortality at 20 mg/m2: surface concentration 20 mg/m^2, glazed tile; for mortality at 4 mg/m2: surface concentration 4 mg/m^2, glazed tile
How it was run: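 Compound dissolved in acetone (2 mg/ml) with 2000 ppm rapeseed oil methyl ester and pipetted onto glazed tile; after acetone evaporation, adult flies exposed to dried surface for 30 minutes. Mortality (%) scored 24 hours after contact.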

Ctenocephalides felis = Ctenocephalides felis oral test (CTECFE Oral); conditions: 48 h, read-out: activity (mortality)
How it was run: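 About 20 unfed adult cat fleas fed through parafilm on cattle blood containing compound (DMSO concentrate diluted in blood to the desired concentration). Blood held at 37 °C, fleas at room temperature. Mortality (%) scored after 2 days.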

Rhipicephalus microplus = test: Rhipicephalus (Boophilus) microplus dip test (BOOPMI Dip); conditions: 168 h, application rate 100 ppm, engorged adult female ticks, after 7 days, read-out: activity (efficacy: 100% means all eggs are infertile)
Method: Rhipicephalus (Boophilus) Microplus—Dip Test (BOOPMI Dip)
Test Animal: cattle ticks (Rhipicephalus microplus) strain parkhurst, SP-resistant Solvent: dimethyl sulfoxide
To produce a suitable preparation of active compound, 10 mg of active compound are dissolved in 0.5 mL solvent, and the concentrate is diluted with water to the desired concentration.
This compound solution is pipetted into tubes. 8-10 engorged, adult, female cattle ticks (Rhipicephalus microplus) are placed in perforated tubes. These tubes are immersed in the aqueous compound solution until the ticks are completely moistened. After the liquid has drained off, the ticks are transferred to a filter paper in a plastic tray and stored in a climate chamber.
After 7 days egg deposition of fertile eggs is monitored. Eggs where fertility is not visible are stored in a climate chamber till hatching after about 42 days. An efficacy of 100% means all eggs are infertile; 0% means all eggs are fertile.

SMILES | mortality at 500 g/ha (Nezara viridula) [%] | mortality at 20 mg/m2 [1] [%] | pest or weed control at 1 µg/cm2, 100 g/ha (Rhipicephalus sanguineus) [%] | pest or weed control at 5 µg/cm2, 500 g/ha (Rhipicephalus sanguineus) [%] | mortality at 4 mg/m2 [2] [%] | mortality at 20 mg/m2 [2] [%] | mortality at 4 ppm (Myzus persicae) [%] | mortality at 20 mg/m2 [3] [%] | mortality at 100 g/ha (Nezara viridula) [%] | mortality at 4 mg/m2 [1] [%] | mortality at 0.8 ppm (Myzus persicae) [%] | mortality at 4 mg/m2 [3] [%] | mortality at 100 ppm (Ctenocephalides felis) [%] | pest or weed control at 100 ppm (Rhipicephalus microplus) [%]
CCN(C(=O)c1ccc(-n2ncnc2[C@H](C)NC(=O)c2cc(Cl)cc(C(F)(F)F)c2)nc1)C1CC1 [II-31] | 90 | 80 to 100 | 100 | 100 | 80 to 100 | 80 to 100 | 100 | 80 to 100 | – | – | – | – | – | –
C[C@H](NC(=O)c1cc(C(F)F)cc(C(F)F)c1)c1ncnn1-c1ccc(C#N)cn1 [II-101] | – | 80 to 100 | 100 | 100 | 80 to 100 | 80 to 100 | 100 | 80 to 100 | 100 | 80 to 100 | 100 | 80 to 100 | – | –
C[C@H](NC(=O)c1cc(Cl)cc(C(F)(F)F)c1)c1ncnn1-c1ccc(N(C)C(=O)C2CC2)cn1 [II-79] | – | 80 to 100 | 80 | 80 | 80 to 100 | 80 to 100 | – | – | 100 | 80 to 100 | 100 | – | 100 | –
CCc1nc([C@H](C)NC(=O)c2cc(C(F)(F)F)cc(C(F)(F)F)c2)n(-c2ccc(C#N)cn2)n1 [I-1] | – | 80 to 100 | 80 | 100 | – | – | 100 | 80 to 100 | – | 80 to 100 | – | – | 90 | 100
C[C@H](NC(=O)c1cc(C(F)(F)F)cc(C(F)(F)F)c1)c1ncnn1-c1ccc(C(N)=O)cn1 [II-81] | – | 80 to 100 | – | – | 80 to 100 | 80 to 100 | 100 | 80 to 100 | 100 | 80 to 100 | 100 | – | 100 | –
C[C@H](NC(=O)c1ccnc(C(F)(F)F)n1)c1ncnn1-c1ccc(C#N)cn1 [II-8] | 100 | 80 to 100 | 100 | 100 | 80 to 100 | 80 to 100 | – | 80 to 100 | 100 | 80 to 100 | – | 80 to 100 | 100 | –
CCc1nc([C@H](C)NC(=O)c2cc(Cl)cc(Cl)c2)n(-c2ccc(C#N)cn2)n1 [I-2] | 90 | – | – | 100 | – | – | – | – | – | – | – | 80 to 100 | 90 | 100
C[C@H](NC(=O)c1cc(Br)cc(OC(F)(F)F)c1)c1ncnn1-c1ccc(C#N)cn1 [II-14] | 100 | 80 to 100 | 80 | 80 | 80 to 100 | – | 100 | 80 to 100 | 100 | 80 to 100 | – | 80 to 100 | 100 | –
CC(=O)Nc1ccnc(-n2ncnc2[C@H](C)NC(=O)c2cc(Cl)cc(C(F)(F)F)c2)c1 [II-36] | 90 | 80 to 100 | – | – | 80 to 100 | 80 to 100 | – | 80 to 100 | – | 80 to 100 | – | – | – | –
C[C@H](NC(=O)c1cc(Cl)cc(C(F)F)c1)c1ncnn1-c1ccc(C#N)cn1 [II-12] | 100 | – | 100 | 100 | 80 to 100 | 80 to 100 | 100 | 80 to 100 | 100 | 80 to 100 | – | 80 to 100 | 100 | –
C[C@H](NC(=O)c1cccc(Cl)n1)c1ncnn1-c1ccc(C#N)cn1 [II-9] | 100 | – | – | 80 | 80 to 100 | 80 to 100 | – | 80 to 100 | – | – | – | – | 90 | –
C[C@H](NC(=O)c1cc(OC(F)F)cc(C(F)F)c1)c1ncnn1-c1ccc(C#N)cn1 [II-116] | – | 80 to 100 | 100 | 100 | – | 80 to 100 | 100 | 80 to 100 | 100 | 80 to 100 | 100 | 80 to 100 | – | –
CCN(C)C(=O)c1ccc(-n2ncnc2[C@H](C)NC(=O)c2cc(Cl)cc(C(F)(F)F)c2)nc1 [II-27] | 100 | 80 to 100 | 100 | 100 | – | 80 to 100 | 100 | – | – | 80 to 100 | – | – | – | –
Cc1nc([C@H](C)NC(=O)c2cc(Br)cc(C#N)c2)n(-c2ccc(C#N)cn2)n1 [II-54] | – | 80 to 100 | 100 | 100 | – | – | 100 | 80 to 100 | – | 80 to 100 | 100 | 80 to 100 | 90 | 80
C[C@H](NC(=O)c1cc(C(F)(F)F)cc(C(F)(F)F)c1)c1ncnn1-c1ccc(C(=O)N(C)CC2CC2)cn1 [II-73] | 100 | – | 100 | 100 | – | – | 100 | – | 100 | – | – | – | – | 100
Cc1nc([C@H](C)NC(=O)c2cc(C(F)(F)F)cc(C(F)(F)F)c2)n(-c2ccc(C(=O)N(C)C3CC3)cn2)n1 [II-96] | – | 80 to 100 | 100 | 100 | – | – | 100 | 80 to 100 | – | 80 to 100 | – | 80 to 100 | 100 | 100
C[C@H](NC(=O)c1cc(OC(F)F)cc(OC(F)F)c1)c1ncnn1-c1ccc(C#N)cn1 [II-77] | – | 80 to 100 | – | 100 | 80 to 100 | 80 to 100 | 100 | 80 to 100 | 100 | 80 to 100 | 90 | 80 to 100 | 100 | –
C[C@H](NC(=O)c1cc(C(F)(F)F)cc(C(F)(F)F)c1)c1ncnn1-c1ncc(Cl)s1 [II-40] | 100 | 80 to 100 | 80 | – | – | 80 to 100 | – | 80 to 100 | 100 | 80 to 100 | – | – | – | –
C[C@H](NC(=O)c1cc(Cl)cc(OC(F)(F)F)c1)c1ncnn1-c1ncc(Cl)s1 [II-16] | 100 | 80 to 100 | 100 | 100 | – | 80 to 100 | – | 80 to 100 | 90 | – | – | – | 100 | –
